According to ChEMBL document CHEMBL1152091, “The synthesis and identification of 4,6-diaminoquinoline derivatives as potent immunostimulants” (1992):

These molecules were tested on Mus musculus (assay: Immunostimulant activity after subcutaneous administration using mouse protection assay). Conditions: sc, read-out: MED.
Assay type: functional
`Nc1ccc2nc(-c3ccccc3)cc(NC3CCCCC3)c2c1` was tested, and the minimal effective dose was > 100 mg/kg.
Molecule `Nc1ccc2nc(-c3ccccc3)cc(Nc3ccc(F)c(F)c3)c2c1` has a minimal effective dose of 6.25 mg/kg.
`CC(=O)Nc1ccc2nc(C)cc(Nc3ccc(OCC4CCCCC4)cc3)c2c1` showed a minimal effective dose of 12.5 mg/kg.
`Cc1cc(Nc2ccc(OCC3CCCCC3)cc2)c2cc(N)ccc2n1` gave a minimal effective dose of 6.25 mg/kg.
Work on `Nc1ccc2nccc(Nc3ccc(OCC4CCCCC4)cc3)c2c1` yielded a minimal effective dose of 12.5 mg/kg.
`Nc1ccc2nc(-c3ccccc3)cc(Nc3ccc(OCC4CCCCC4)cc3)c2c1` gave a minimal effective dose of 5.6 mg/kg.
With `Cc1cc(Nc2ccc(OCC3CCCCC3)cc2)c2cc(NC(N)=O)ccc2n1` the minimal effective dose was 50 mg/kg.
`CCOc1ccc(Nc2ccnc3ccc(N)cc23)cc1` showed a minimal effective dose of 6.25 mg/kg.
Work on `Cc1cc(Nc2ccc(F)c(F)c2)c2cc(N)ccc2n1` yielded a minimal effective dose of 12.5 mg/kg.
With `CC(=O)Nc1ccc2nccc(Nc3ccc(OCC4CCCCC4)cc3)c2c1` the minimal effective dose was 6.25 mg/kg.
Molecule `CS(=O)(=O)Nc1ccc2nc(-c3ccccc3)cc(Nc3ccc(OCC4CCCCC4)cc3)c2c1` has a minimal effective dose of 12.5 mg/kg.
With `O=[N+]([O-])c1ccc2nc(-c3ccccc3)cc(Nc3ccc(Cl)cc3)c2c1` the minimal effective dose was > 50 mg/kg.
Molecule `Nc1ccc2nc(-c3ccccc3)cc(Nc3ccc(Cl)cc3)c2c1` has a minimal effective dose of 5.6 mg/kg.
Molecule `CCCCOc1ccc(Nc2ccnc3ccc(N)cc23)cc1` has a minimal effective dose of 25 mg/kg.
`O=[N+]([O-])c1ccc2nc(-c3ccccc3)cc(Nc3ccc(OCC4CCCCC4)cc3)c2c1` was tested, and the minimal effective dose was > 50 mg/kg.
`NC(=O)Nc1ccc2nc(-c3ccccc3)cc(Nc3ccc(OCC4CCCCC4)cc3)c2c1` was tested, and the minimal effective dose was 6.25 mg/kg.
